Common to all, as to format: biochemical
The nature of assay [1]: Methyl glyoxal-trapping activity test (DMB derivatisation, HPLC). Conditions: 0.02 mM methyl glyoxal, 0.2 mM test compound, PBS, 37° C., 30 minutes. Here is the method: In 0.2 mL of PBS were incubated 0.02 mM of methyl glyoxal and 0.2 mM of test compound at 37° C. for 30 minutes. Subsequently, a volume of 5 mM DMB (1,2-diamino-4,5-methylenedioxy benzene) solution equivalent to 10 μL of the incubation sample was added, followed by further incubation at 4° C. for 7 hours to react the remaining methyl glyoxal with DMB. After the end of reaction, a 0.4 M phosphate buffer solution (pH 7.2) was added for neutralization, followed by quantitating the modified product of methyl glyoxal-DMB using HPLC.
(§1) HPLC having a YMC-Pack Pro C18 column (φ4.6 mm×150 mm) and employing 5 mM sodium phosphate buffer (pH 7.4)-25% acetonitrile as a mobile phase was used at a flow rate of 0.7 mL/min to determine fluorescence strength at Ex352 nm and Em385 nm.
The proportion of methyl glyoxal trapped by the test compound was calculated as % trapping activity, based on the quantitative value of the total modified product of methyl glyoxal-DMB in the absence of the test compound.

A short description of assay [2]: Glyoxal-trapping activity test (DMB derivatisation, HPLC). Conditions: 0.02 mM glyoxal, 0.2 mM test compound, PBS, 37° C., 30 minutes. Here is the method: In 0.2 mL of PBS were incubated 0.02 mM of glyoxal and 0.2 mM of test compound at 37° C. for 30 minutes. Subsequently, a volume of 5 mM DMB (1,2-diamino-4,5-methylenedioxy benzene) solution equivalent to 10 μL of the incubation sample was added, followed by further incubation at 4° C. for 7 hours to react the remaining methyl glyoxal with DMB. After the end of reaction, a 0.4 M phosphate buffer solution (pH 7.2) was added for neutralization, followed by quantitating the modified product of glyoxal-DMB using HPLC.
as §1
The proportion of glyoxal trapped by the test compound was calculated as % trapping activity, based on the quantitative value of the total modified product of glyoxal-DMB in the absence of the test compound.

The subject of assay [3] is Maillard reaction (lysozyme / fructose, dimer formation). Nature of the assay: Maillard reaction-inhibiting effects (lysozyme dimer formation with fructose, SDS-PAGE densitometry). The following applies: 10 mg/mL lysozyme, 200 mM fructose, pH 7.4, 37° C., 4 days, dimer formation inhibition rate. Here is the method:
This Example examined Maillard reaction-inhibiting effects using, as test compounds, the compounds produced in the above-described Examples and the commercially available substances arginine hydroxamate (Compound No. 111), tyrosine hydroxamate (Compound No. 112), and tryptophan hydroxamate (Compound No. 113). More specifically, 10 mg/mL lysozyme, 200 mM fructose, and each of the above-described test compounds dissolved in a 0.4 mM sodium phosphate buffer (pH 7.4) so as to provide a concentrations of 0.1, 0.3, 1, or 3 mM were incubated at 37° C. for 4 days. After the incubation, the samples were subjected to SDS-PAGE, stained with Coomassie Brilliant Blue R-250, and quantitated for the formed dimmers using a densitometer. The Maillard reaction-inhibiting activity was defined as the dimmer formation inhibition rate of a test compound calculated on the basis that the amount of dimmer is 100% in the absence of the test compound, using, as blank, the amount of dimer in the absence of fructose and the test compound.

The mark [4] stands for this setting: test compound concentration 0.1 mM.
Setting [5] is: test compound concentration 0.3 mM.
Setting [6] is: test compound concentration 1 mM.
Where [7] appears, read: test compound concentration 3 mM.

For the compound `CCCCCn1cc(CC(N)C(=O)NO)c2ccccc21` (racemic) [Compound No. 105, (RS)-2-amino-3-(1-pentyl-1H-indol-3-yl)-N-hydroxypropionamide], the “Methyl-glyoxal-trapping activity (% trapping)” value in assay [1] worked out at 93.3 ± 0.8 % trapping. Moreover, the “Glyoxal-trapping activity (% trapping)” value in assay [2] worked out at 69.7 ± 1.1 % trapping. Moreover, the “Maillard reaction-inhibiting activity (%)” value in assay [3] (setting [4]) is recorded as 95%; in assay [3] (setting [5]), 97%; in assay [3] (setting [6]) it was 98%; in assay [3] (setting [7]), 98%.
For the compound `N#Cc1ccc(Cn2cc(CC(N)C(=O)NO)c3ccccc32)cc1` (racemic) [Compound No. 107, (RS)-2-amino-3-[1-(4-cyanobenzyl)-1H-indol-3-yl]-N-hydroxypropionamide], the “Methyl-glyoxal-trapping activity (% trapping)” value in assay [1] stood at 87.3 ± 0.5 % trapping. The “Glyoxal-trapping activity (% trapping)” value in assay [2] came to 69.8 ± 1.2 % trapping. In addition, the “Maillard reaction-inhibiting activity (%)” value in assay [3] (setting [4]) was found to be 101%; in assay [3] (setting [5]) it was 100%; in assay [3] (setting [6]), 101%; in assay [3] (setting [7]), 101%.
For the compound `N=C(N)NN` [Aminoguanidine, reference compound], the “Methyl-glyoxal-trapping activity (% trapping)” value in assay [1] came out at 52.8 ± 1.5 % trapping. Further, the “Glyoxal-trapping activity (% trapping)” value in assay [2] worked out at 32.9 ± 3.8 % trapping. Also, the “Maillard reaction-inhibiting activity (%)” value in assay [3] (setting [4]) is −3%; in assay [3] (setting [5]), −5%; in assay [3] (setting [6]) it was 7%; in assay [3] (setting [7]) it was 26%.
For the compound `CCCn1c(CC[C@H](N)C(=O)NO)nc2cc(Cl)c(Cl)cc21` [Compound No. 95, (S)-2-amino-4-(5,6-dichloro-1-propyl-1H-benzimidazol-2-yl)-N-hydroxybutyramide], in assay [1], the “Methyl-glyoxal-trapping activity (% trapping)” value is recorded as 84.2 ± 0.6 % trapping. For the same compound, the “Glyoxal-trapping activity (% trapping)” value in assay [2] is given as 65.7 ± 2.2 % trapping. Moreover, the “Maillard reaction-inhibiting activity (%)” value was determined as 102% in assay [3] (setting [4]), 106% in assay [3] (setting [5]), 107% in assay [3] (setting [6]) and 108% in assay [3] (setting [7]).
`N[C@@H](Cc1cn(Cc2c(F)c(F)c(F)c(F)c2F)c2ccccc12)C(=O)NO` [Compound No. 104, (S)-2-amino-3-(1-pentafluorophenylmethyl-1H-indol-3-yl)-N-hydroxypropionamide]: in assay [1], the “Methyl-glyoxal-trapping activity (% trapping)” value worked out at 81.9 ± 2.1 % trapping. The “Glyoxal-trapping activity (% trapping)” value in assay [2] was 66.5 ± 2.4 % trapping. Besides, the “Maillard reaction-inhibiting activity (%)” value came to 95% in assay [3] (setting [4]), 97% in assay [3] (setting [5]), 94% in assay [3] (setting [6]) and 100% in assay [3] (setting [7]).
With `NC(N)=NCCC[C@H](N)C(=O)NO` [Compound No. 111, arginine hydroxamate], the “Methyl-glyoxal-trapping activity (% trapping)” value in assay [1] amounted to 77.6 ± 0.5 % trapping. In addition, in assay [2], the “Glyoxal-trapping activity (% trapping)” value was 75.2 ± 1.3 % trapping. Further, the “Maillard reaction-inhibiting activity (%)” value in assay [3] (setting [4]) was 10%; in assay [3] (setting [5]) it was 17%; in assay [3] (setting [6]) it was 75%; in assay [3] (setting [7]) it was 98%.
For `N[C@@H](Cc1ccc(O)cc1)C(=O)NO` [Compound No. 112, tyrosine hydroxamate], the “Methyl-glyoxal-trapping activity (% trapping)” value in assay [1] is listed as 74.4 ± 2.7 % trapping. For the same compound, the “Glyoxal-trapping activity (% trapping)” value in assay [2] amounted to 67.8 ± 1.2 % trapping. The “Maillard reaction-inhibiting activity (%)” value in assay [3] (setting [4]) is recorded as 24%; in assay [3] (setting [5]), 61%; in assay [3] (setting [6]), 99%; in assay [3] (setting [7]), 101%.
For `NC(Cc1c[nH]c2ccccc12)C(=O)NO` (stereo not drawn) [Compound No. 113, tryptophan hydroxamate], the “Methyl-glyoxal-trapping activity (% trapping)” value in assay [1] is given as 96.2 ± 0.7 % trapping. For the same compound, the “Glyoxal-trapping activity (% trapping)” value in assay [2] stood at 75.9 ± 0.9 % trapping. Besides, the “Maillard reaction-inhibiting activity (%)” value in assay [3] (setting [4]) came to 42%; in assay [3] (setting [5]), 76%; in assay [3] (setting [6]), 99%; in assay [3] (setting [7]) it was 102%.

Values taken from patent publication US20080132539A1, “Hydroxamic Acid Derivative And Age Generation Inhibitor Containing The Derivative” (priority 2003, published 2008).
